What all share (assay): Aortic mural gene expression, RT-PCR (TLDA)
What all share (type): in vivo, ApoE−/− mice
Details in all cases: fold change over ApoE−/− control; aorta, 28 days Ang II infusion

Experiment [1] deals with LOX. The procedure: (§1) ApoE−/− mice used in this study were divided into different pretreatment groups: 1) Fluvastatin-MF; 2) Doxycycline-MD; 3) Irbesartan-MI; 4) Telmisartan-MT; 5) Control (water) and fed medicated chow or medicated drinking water 1 week prior to pump implantation. AngII (1000 ng·kg^−1 of body weight·min^−1) was infused subcutaneously via Alzet mini-osmotic pumps for 28 days. All mice were maintained on the medicated chow (MI & MT) or medicated drinking water (MF & MD) treatments which were delivered daily for a total of 28 days following pump implantation.
(§2) In order to determine the effect of the various treatments on the progressive enlargement of the experimental AAAs the mice were followed with high frequency trans-abdominal ultrasound. Maximum aortic diameter was measured and recorded prior to pump implantation and then at 3, 7, 14, 21, and 28 days. All mice were sacrificed 28 days after pump implantation. Aortae were harvested and subjected to either histological analysis (Elastic Masson trichome, MAC2, CD31 and TUNEL staining) and analysis of mural gene expression. Plasma drug concentrations of experimental compounds were quantified on the day of sacrifice using high performance liquid chromatography (HPLC).
(§3) Total RNA was extracted from homogenized aortas using the Qiazol lysis reagent and RNeasy Lipid Tissue Mini kit. DNAse treatment was included in the procedure. RNA concentration was determined utilizing the Quant iT RNA assay kit. Complimentary deoxyribonucleic acid (cDNA) was synthesized from 1 μg RNA using High reverse cDNA transcription kit. Briefly the reaction tubes containing RNA, reverse transcriptase, buffer, RNAse inhibitor, and nuclease free water were incubated at 25° C. for 10 minutes to allow annealing. Reverse transcription was performed at 37° C. for 120 min, followed by a 5 sec incubation at 85° C. to inactivate the reverse transcriptase enzyme. The cDNA samples were cooled at 4° C. and stored at −80° C. until further use.
(§4) Real time PCR was performed using a 384-well Taqman low density array (TLDA) card. Each sample specific PCR mix contained 50 ng of total RNA converted to cDNA. The PCR reaction for Taqman assays contained 50 μl Master Mix (Taqman Universal PCR Master Mix,) and 50 ul of cDNA and RNAase free water. Assays were performed to include appropriate controls (no template control). The RT-PCR protocol included an initial step of 50° C. (2 minutes) […], denaturation by a hot start at 95° C. for 10 min, followed by 40 cycles of a 2 step program (denaturation at 95° C. for 15 secs for primer annealing/extension at 60° C. for 1 min). Fluorescence data was collected at 60° C. Fluorescence was quantified with ABI PRISM 7900HT Sequence Detection System. To verify amplification of a specific target cDNA, data generated was analyzed using SDS 2.2.3 software (Sequence Detection System Software, Applied Biosystems). For all amplification plots, the baseline data were set with the automatic CT function available with SDS 2.2.3 calculating the optimal baseline range and threshold value by using the AutoCT algorithm. According to the manufacturer's instruction, a CT value of ≧39 corresponds to nonspecific amplification marking the limits of detection. For endogenous control GAPDH was normalized to B2M. For relative quantification (RQ), pooled ApoE−/− control was used as the calibrator (with expression equal to 1).

In experiment [2] the test system is Cathepsin S. The method, then:
as §1, §2, §3, §4

The subject of experiment [3] is Runx3. The method, then:
as §1, §2, §3, §4

In experiment [4] the test system is TIMP2. The method, then:
as §1, §2, §3, §4

The subject of experiment [5] is Osteopontin. The method, then: as §1, §2, §3, §4
For experiment [6], the system named is Vav1. The method, then: as §1, §2, §3, §4
Experiment [7] relates to CCL2. The method, then:
as §1, §2, §3, §4

Experiment [8] concerns CCR5. The method, then: as §1, §2, §3, §4
Experiment [9] concerns IL-7. The procedure:
as §1, §2, §3, §4

For experiment [10], the system named is TNF-α. The method, then:
as §1, §2, §3, §4

The test system of experiment [11] is MMP-12. The method, then:
as §1, §2, §3, §4

Experiment [12] relates to MMP-8. The method, then:
as §1, §2, §3, §4

The test system of experiment [13] is ITGB2. The procedure: as §1, §2, §3, §4
In experiment [14] the test system is Cathepsin B. The procedure: as §1, §2, §3, §4
The subject of experiment [15] is MAPK8. The procedure: as §1, §2, §3, §4
The test system of experiment [16] is Rac2. The procedure:
as §1, §2, §3, §4

The subject of experiment [17] is CCR2. The procedure:
as §1, §2, §3, §4

Experiment [18] relates to Tgfβ1. The method, then: as §1, §2, §3, §4
For experiment [19], the system named is Cybb. The method, then:
as §1, §2, §3, §4

Experiment [20] concerns Fibronectin -1. The procedure: as §1, §2, §3, §4
The subject of experiment [21] is CXCR4. The procedure: as §1, §2, §3, §4
Experiment [22] concerns HMOX 1. The method, then:
as §1, §2, §3, §4

`CCCc1nc2c(C)cc(-c3nc4ccccc4n3C)cc2n1Cc1ccc(-c2ccccc2C(=O)O)cc1` [Telmisartan]: the LOX expression result in experiment [1] is “− (0 to 1 = −)”. Besides, the “Cathepsin S expression” value in [2] is listed as “− (0 to 1 = −)”. The Runx3 expression result in experiment [3] is on record as “− (0 to 1 = −)”. The TIMP2 expression result in experiment [4] is “− (0 to 1 = −)”. Further, the Osteopontin expression entry in experiment [5] is given as “− (0 to 1 = −)”. Moreover, in experiment [6], the Vav1 expression result is reported as “− (0 to 1 = −)”. Besides, the CCL2 expression entry in experiment [7] is recorded as “− (0 to 1 = −)”. The CCR5 expression entry in [8] is “− (0 to 1 = −)”. In addition, the IL-7 expression entry in experiment [9] is listed as “+ (1.1 to 1.5 = +)”. The TNF-α expression entry in experiment [10] is on record as “− (0 to 1 = −)”. The MMP-12 expression entry in experiment [11] is on record as “− (0 to 1 = −)”. For the same compound, in [12], the MMP-8 expression entry is on record as “− (0 to 1 = −)”. The ITGB2 expression result in experiment [13] is recorded as “− (0 to 1 = −)”. Moreover, in [14], the “Cathepsin B expression” value is recorded as “− (0 to 1 = −)”. The MAPK8 expression entry in experiment [15] is recorded as “++ (1.51 to 3 = ++)”. The Rac2 expression entry in [16] was “− (0 to 1 = −)”. For the same compound, in experiment [17], the CCR2 expression result is “− (0 to 1 = −)”. For the same compound, in experiment [18], the Tgfβ1 expression entry was “− (0 to 1 = −)”. Also, the Cybb expression result in [19] was “− (0 to 1 = −)”. In addition, the “Fibronectin -1 expression” value in experiment [20] was “− (0 to 1 = −)”. Besides, the CXCR4 expression result in [21] is reported as “+++ (3.1 to 10 = +++)”. Further, in [22], the “HMOX 1 expression” value is “− (0 to 1 = −)”.

As to `CC(C)n1c(/C=C/C(O)CC(O)CC(=O)O)c(-c2ccc(F)cc2)c2ccccc21` (centres unmarked) [Fluvastatin], the LOX expression entry in experiment [1] is recorded as “− (0 to 1 = −)”. Also, the “Cathepsin S expression” value in experiment [2] is “+++ (3.1 to 10 = +++)”. The Runx3 expression entry in experiment [3] is reported as “++ (1.51 to 3 = ++)”. Moreover, the TIMP2 expression result in experiment [4] is listed as “− (0 to 1 = −)”. In addition, the Osteopontin expression result in experiment [5] is given as “++++ (>10.1 = ++++)”. Moreover, the Vav1 expression result in [6] is listed as “++ (1.51 to 3 = ++)”. Further, in experiment [7], the CCL2 expression result is on record as “++ (1.51 to 3 = ++)”. The CCR5 expression result in [8] is listed as “+++ (3.1 to 10 = +++)”. Besides, the IL-7 expression result in [9] is “− (0 to 1 = −)”. Moreover, the TNF-α expression result in experiment [10] was “++ (1.51 to 3 = ++)”. Besides, the MMP-12 expression entry in experiment [11] was “+++ (3.1 to 10 = +++)”. The MMP-8 expression result in [12] is on record as “++++ (>10.1 = ++++)”. Besides, in experiment [13], the ITGB2 expression entry is listed as “++ (1.51 to 3 = ++)”. Besides, the “Cathepsin B expression” value in [14] is on record as “+ (1.1 to 1.5 = +)”. Moreover, the MAPK8 expression entry in experiment [15] is recorded as “− (0 to 1 = −)”. Further, the Rac2 expression result in experiment [16] is “+ (1.1 to 1.5 = +)”. Besides, the CCR2 expression result in [17] is listed as “+++ (3.1 to 10 = +++)”. Moreover, the Tgfβ1 expression result in [18] is “+++ (3.1 to 10 = +++)”. Further, in experiment [19], the Cybb expression entry is “++ (1.51 to 3 = ++)”. Moreover, in experiment [20], the “Fibronectin -1 expression” value is “− (0 to 1 = −)”. Also, the CXCR4 expression entry in experiment [21] is “+++ (3.1 to 10 = +++)”. The “HMOX 1 expression” value in experiment [22] is “+++ (3.1 to 10 = +++)”.
